According to the supplement of paper PMC11061612:

Columns and labels:
Paclitaxel = compound: CC(=O)O[C@H]1C(=O)[C@@]2(C)[C@H]([C@H](OC(=O)c3ccccc3)[C@]3(O)C[C@H](OC(=O)[C@H](O)[C@@H](NC(=O)c4ccccc4)c4ccccc4)C(C)=C1C3(C)C)[C@]1(OC(C)=O)CO[C@@H]1C[C@@H]2O [Paclitaxel]; conditions: max 3 µM
Outline: (§1)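 Following 24 hours at 37°C and 5% CO2, cancer cell lines in 1536-well plates with 7.5 μl DMEM/F12 or RPMI and 10% FBS were dosed for 72 hours, final DMSO typically being 0.2%. CellTiter-Glo 2.0 luminescence, scaled between blank-well and DMSO-well means, gave the viability readout. Dose responses were fitted to a two-parameter logistic curve with a non-linear mixed effects model, and the single-agent IC50 was derived from this fit.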

Doxorubicin = compound: COc1cccc2c1C(=O)c1c(O)c3c(c(O)c1C2=O)C[C@@](O)(C(=O)CO)C[C@@H]3O[C@H]1C[C@H](N)[C@H](O)[C@H](C)O1 [Doxorubicin]; conditions: max 1 µM
Outline: as §1

5-Fluorouracil = compound: O=c1[nH]cc(F)c(=O)[nH]1 [5-Fluorouracil]; conditions: max 20 µM
Outline: as §1

AZD6738 = compound: C[C@@H]1COCCN1C2=NC(=NC(=C2)C3(CC3)[S@](=N)(=O)C)C4=C5C=CNC5=NC=C4 [AZD6738]; conditions: max 10 µM
Outline: as §1

AZD0156 = compound: CN(C)CCCOc1ccc(-c2ccc3ncc4c(c3c2)n(C2CCOCC2)c(=O)n4C)cn1 [AZD0156]; conditions: max 3 µM
Outline: as §1

AZD5153 = compound: COc1nnc2ccc(N3CCC(c4ccc(OCCN5CCN(C)C(=O)[C@H]5C)cc4)CC3)nn12 [AZD5153]; conditions: max 1 µM
Outline: as §1

AZD5991 = compound: Cc1c2c(nn1C)CSCc1cc(n(C)n1)CSc1cc(c3ccccc3c1)OCCCc1c(C(=O)O)n(C)c3c-2c(Cl)ccc13 [AZD5991]; conditions: max 1 µM
Outline: as §1

Crizotinib = compound: C[C@@H](Oc1cc(-c2cnn(C3CCNCC3)c2)cnc1N)c1c(Cl)ccc(F)c1Cl [Crizotinib]; conditions: max 10 µM
Outline: as §1

Gefitinib = compound: COc1cc2ncnc(Nc3ccc(F)c(Cl)c3)c2cc1OCCCN1CCOCC1 [Gefitinib]; conditions: max 10 µM
Outline: as §1

Venetoclax = compound: CC1(C)CCC(CN2CCN(c3ccc(C(=O)NS(=O)(=O)c4ccc(NCC5CCOCC5)c([N+](=O)[O-])c4)c(Oc4cnc5[nH]ccc5c4)c3)CC2)=C(c2ccc(Cl)cc2)C1 [Venetoclax]; conditions: max 1 µM
Outline: as §1

[1] = compound: O=C(Nc1ccc2[nH]nc(-c3ccncc3)c2c1)[C@@H]1CCN(CC(=O)N2CCN(c3ccc(-c4ncccn4)cc3)CC2)C1; conditions: max 5 µM
Outline: as §1

AZD5363 = compound: C1CN(CCC1(C(=O)N[C@@H](CCO)C2=CC=C(C=C2)Cl)N)C3=NC=NC4=C3C=CN4 [AZD5363]; conditions: max 10 µM
Outline: as §1

AZD2811 = compound: CCN(CCO)CCCOc1ccc2c(Nc3cc(CC(=O)Nc4cccc(F)c4)[nH]n3)ncnc2c1 [AZD2811]; conditions: max 1 µM
Outline: as §1

Prexasertib = compound: COc1cccc(OCCCN)c1-c1cc(Nc2cnc(C#N)cn2)n[nH]1 [Prexasertib]; conditions: max 1 µM
Outline: as §1

AZD7648 = compound: Cc1cc2ncnn2cc1Nc1ncc2c(n1)n(C1CCOCC1)c(=O)n2C [AZD7648]; conditions: max 10 µM
Outline: as §1

SG3199 = compound: CC1=CN2[C@@H](C1)C=NC3=CC(=C(C=C3C2=O)OC)OCCCCCOC4=C(C=C5C(=C4)N=C[C@@H]6CC(=CN6C5=O)C)OC [SG3199]; conditions: max 0.001 µM
Outline: as §1

Gemcitabine = compound: Nc1ccn([C@@H]2O[C@H](CO)[C@@H](O)C2(F)F)c(=O)n1 [Gemcitabine]; conditions: max 0.3 µM
Outline: as §1

SRA737 = compound: N#Cc1cnc(Nc2cc(NC[C@H]3CNCCO3)c(C(F)(F)F)cn2)cn1 [SRA737]; conditions: max 10 µM
Outline: as §1

AZD1390 = compound: CC(C)n1c(=O)n(C)c2cnc3cc(F)c(-c4ccc(OCCCN5CCCCC5)nc4)cc3c21 [AZD1390]; conditions: max 0.3 µM
Outline: as §1

Etoposide = compound: COc1cc([C@@H]2c3cc4c(cc3[C@@H](O[C@@H]3O[C@@H]5CO[C@@H](C)O[C@H]5[C@H](O)[C@H]3O)[C@H]3COC(=O)[C@H]23)OCO4)cc(OC)c1O [Etoposide]; conditions: max 10 µM
Outline: as §1

Selumetinib = compound: Cn1cnc2c(F)c(Nc3ccc(Br)cc3Cl)c(C(=O)NOCCO)cc21 [Selumetinib]; conditions: max 10 µM
Outline: as §1

Olaparib = compound: O=C(c1cc(Cc2n[nH]c(=O)c3ccccc23)ccc1F)N1CCN(C(=O)C2CC2)CC1 [Olaparib]; conditions: max 10 µM
Outline: as §1

AZD8186 = compound: C[C@@H](Nc1cc(F)cc(F)c1)c1cc(C(=O)N(C)C)cc2c(=O)cc(N3CCOCC3)oc12 [AZD8186]; conditions: max 10 µM
Outline: as §1

SN-38 = compound: CCc1c2c(nc3ccc(O)cc13)-c1cc3c(c(=O)n1C2)COC(=O)[C@]3(O)CC [SN-38]; conditions: max 0.3 µM
Outline: as §1

Dasatinib = compound: CC1=C(C(=CC=C1)Cl)NC(=O)C2=CN=C(S2)NC3=CC(=NC(=N3)C)N4CCN(CC4)CCO [Dasatinib]; conditions: max 2 µM
Outline: as §1

MK-2206 = compound: NC1(c2ccc(-c3nc4ccn5c(=O)[nH]nc5c4cc3-c3ccccc3)cc2)CCC1 [MK-2206]; conditions: max 10 µM
Outline: as §1

Palbociclib = compound: CC(=O)c1c(C)c2cnc(Nc3ccc(N4CCNCC4)cn3)nc2n(C2CCCC2)c1=O [Palbociclib]; conditions: max 10 µM
Outline: as §1

Carboplatin = compound: C1CC(C1)(C(=O)[O-])C(=O)[O-].N.N.[Pt+2] [Carboplatin]; conditions: max 10 µM
Outline: as §1

Trametinib = compound: CC(=O)Nc1cccc(-n2c(=O)n(C3CC3)c(=O)c3c(Nc4ccc(I)cc4F)n(C)c(=O)c(C)c32)c1 [Trametinib]; conditions: max 1 µM
Outline: as §1

Savolitinib = compound: C[C@@H](c1ccc2nccn2c1)n1nnc2ncc(-c3cnn(C)c3)nc21 [Savolitinib]; conditions: max 1 µM
Outline: as §1

Lapatinib = compound: CS(=O)(=O)CCNCc1ccc(-c2ccc3ncnc(Nc4ccc(OCc5cccc(F)c5)c(Cl)c4)c3c2)o1 [Lapatinib]; conditions: max 10 µM
Outline: as §1

AZD1775 = compound: C=CCn1c(=O)c2cnc(Nc3ccc(N4CCN(C)CC4)cc3)nc2n1-c1cccc(C(C)(C)O)n1 [AZD1775]; conditions: max 3 µM
Outline: as §1

Alisertib = compound: COc1cc(Nc2ncc3c(n2)-c2ccc(Cl)cc2C(c2c(F)cccc2OC)=NC3)ccc1C(=O)O [Alisertib]; conditions: max 10 µM
Outline: as §1

Taselisib = compound: Cc1nc(-c2cn3c(n2)-c2ccc(-c4cnn(C(C)(C)C(N)=O)c4)cc2OCC3)n(C(C)C)n1 [Taselisib]; conditions: max 10 µM
Outline: as §1

AZD4320 = compound: CN(CC[C@H](CSC1=CC=CC=C1)NC2=C(C=C(C=C2)S(=O)(=O)NC(=O)C3=CC=C(C=C3)N4CCC(CC4)[C@H](C5=CC=CC=C5C6=CC=C(C=C6)Cl)O)S(=O)(=O)C(F)(F)F)CCO [AZD4320]; conditions: max 1 µM
Outline: as §1

Cell Line | IC50, cell viability 72 h (Paclitaxel) [nM] | IC50, cell viability 72 h (Doxorubicin) [nM] | IC50, cell viability 72 h (5-Fluorouracil) [nM] | IC50, cell viability 72 h (AZD6738) [nM] | IC50, cell viability 72 h (AZD0156) [nM] | IC50, cell viability 72 h (AZD5153) [nM] | IC50, cell viability 72 h (AZD5991) [nM] | IC50, cell viability 72 h (Crizotinib) [nM] | IC50, cell viability 72 h (Gefitinib) [nM] | IC50, cell viability 72 h (Venetoclax) [nM] | IC50, cell viability 72 h [1] [nM] | IC50, cell viability 72 h (AZD5363) [nM] | IC50, cell viability 72 h (AZD2811) [nM] | IC50, cell viability 72 h (Prexasertib) [nM] | IC50, cell viability 72 h (AZD7648) [nM] | IC50, cell viability 72 h (SG3199) [nM] | IC50, cell viability 72 h (Gemcitabine) [nM] | IC50, cell viability 72 h (SRA737) [nM] | IC50, cell viability 72 h (AZD1390) [nM] | IC50, cell viability 72 h (Etoposide) [nM] | IC50, cell viability 72 h (Selumetinib) [nM] | IC50, cell viability 72 h (Olaparib) [nM] | IC50, cell viability 72 h (AZD8186) [nM] | IC50, cell viability 72 h (SN-38) [nM] | IC50, cell viability 72 h (Dasatinib) [nM] | IC50, cell viability 72 h (MK-2206) [nM] | IC50, cell viability 72 h (Palbociclib) [nM] | IC50, cell viability 72 h (Carboplatin) [nM] | IC50, cell viability 72 h (Trametinib) [nM] | IC50, cell viability 72 h (Savolitinib) [nM] | IC50, cell viability 72 h (Lapatinib) [nM] | IC50, cell viability 72 h (AZD1775) [nM] | IC50, cell viability 72 h (Alisertib) [nM] | IC50, cell viability 72 h (Taselisib) [nM] | IC50, cell viability 72 h (AZD4320) [nM]
BICR78 (Oral Cavity Carcinoma) | 49.3 | > 1000 | > 20000 | 7520 | > 3000 | 966 | > 1000 | > 10000 | > 10000 | > 1000 | > 5000 | > 10000 | > 1000 | 238 | > 10000 | > 1 | > 300 | > 10000 | > 300 | > 10000 | > 10000 | > 10000 | > 10000 | 28.4 | > 2000 | > 10000 | > 10000 | > 10000 | > 1000 | > 1000 | > 10000 | > 3000 | > 10000 | 5010 | > 1000
CAL-39 (Other Solid Carcinomas) | 6.79 | > 1000 | > 20000 | > 10000 | > 3000 | 287 | > 1000 | 4690 | 737 | > 1000 | 581 | > 10000 | > 1000 | > 1000 | > 10000 | > 1 | 25.2 | > 10000 | > 300 | 9070 | 1020 | > 10000 | 4770 | 22.2 | 73.9 | > 10000 | > 10000 | > 10000 | 59 | > 1000 | 377 | 651 | 420 | 142 | > 1000
CS1 (Chondrosarcoma) | 114 | 641 | > 20000 | > 10000 | > 3000 | > 1000 | > 1000 | 9480 | > 10000 | > 1000 | > 5000 | > 10000 | > 1000 | 77.2 | > 10000 | > 1 | > 300 | > 10000 | > 300 | > 10000 | > 10000 | > 10000 | > 10000 | 18.6 | > 2000 | > 10000 | > 10000 | > 10000 | > 1000 | > 1000 | > 10000 | 2030 | 4520 | > 10000 | > 1000
D-283MED (Other Solid Carcinomas) | < 3 | 200 | 7430 | 302 | > 3000 | 60.8 | > 1000 | 2730 | > 10000 | > 1000 | > 5000 | 8850 | 450 | 11 | > 10000 | > 1 | 3.45 | 869 | > 300 | 583 | > 10000 | > 10000 | 8400 | 7.3 | > 2000 | > 10000 | > 10000 | > 10000 | > 1000 | > 1000 | 6250 | 425 | 547 | 3990 | 425
D-392MG (Glioblastoma) | 245 | > 1000 | > 20000 | > 10000 | > 3000 | > 1000 | > 1000 | > 10000 | > 10000 | > 1000 | > 5000 | > 10000 | > 1000 | 775 | > 10000 | > 1 | > 300 | > 10000 | > 300 | > 10000 | > 10000 | > 10000 | > 10000 | > 300 | > 2000 | > 10000 | > 10000 | > 10000 | > 1000 | > 1000 | > 10000 | > 3000 | > 10000 | > 10000 | > 1000
